This note sets out measurements from patent publication US20250288535A1, “INSTANT NANOPARTICLE COMPOSITION AND PREPARATION METHOD THEREFOR” (CSPC ZHONGQI PHARMACEUTICAL TECHNOLOGY (SHIJIAZHUANG) CO., …, priority 2022, published 2025).

A short description of this data set: Tissue distribution in JIMT-1 tumor-bearing mice. The class given is in vivo. Conditions: 20 mg/kg tail vein injection. The protocol: 48 human breast cancer JIMT-1 tumor-bearing mice were randomly divided into 2 experimental groups, with a total of 6 mice in each experimental group at each time point. Both of the two preparations were administered to the respective experimental mice at a dose of 20 mg/kg through tail vein injection. Blood samples were collected from each group at 0.25, 1, 3 and 24 hours after administration and the mice were sacrificed immediately. Tumor, heart, liver, spleen, lung, kidney, stomach, small intestine, pancreas and ovary tissues were dissected and subjected to pretreatments such as homogenization, the drug concentration in each tissue sample was determined by protein precipitation-LC/MS/MS method, and the main pharmacokinetic parameters were calculated by using the non-compartmental model of Phoenix WinNonlin 8.0 software (Pharsight, USA).

Turning to `CC(=O)O[C@H]1C(=O)[C@@]2(C)[C@H]([C@H](OC(=O)c3ccccc3)[C@]3(O)C[C@H](OC(=O)[C@H](O)[C@@H](NC(=O)c4ccccc4)c4ccccc4)C(C)=C1C3(C)C)[C@]1(OC(C)=O)CO[C@@H]1C[C@@H]2O` [paclitaxel], the “tissue with the highest exposure” value was “highest exposure in the liver”.
